Experimental findings from patent publication US12594255B2, “Lipids with odd number of carbon atoms and their use as pharmaceutical composition or nutritional supplement” (SunRegen Healthcare AG, priority 2016, dated 2026) are described below.

What is called viability is a read-out of living cells in per cent, often relative to untreated cells.

Read-outs that look alike come from different tables or passages of the source.

What all share (format): cell-based
The test system of assay [1] is mouse primary cortical neurons. As to the kind of experiment: Axonal growth (MAP2 immunolabelling, axonal length). The settings on record: vehicle control 165.96±90.18 μm. As to the method:
Mouse primary cortical neurons were pre-incubated for 48 h with vehicle, 60 nM sAPPα (used as positive control) or different concentrations of Compound C. Then, cortical neurons were treated for 24 h with vehicle. Data are represented as % of vehicle control (Mean±SD).
Cortical neurons from embryonic day 16-17 are prepared from C57Bl6/J mouse fetuses, as described in Example I-1. After 96-h incubation, axonal length is recorded. Briefly, cells were washed with ice-cold PBS and fixed with cold methanol. Following fixation, cells are immunolabelled using a specific antibody detecting total MAP2 protein. Antibodies to MAP2 are excellent markers on neuronal cells, their axons and neuronal dendrites. For quantification of axonal length, six independent images of labelled cells are captured using an inverted microscope. Pictures of cells are analyzed using Neuron-J software and axonal length is recorded manually. A minimum of 100 independent neurons are treated. The data are expressed as mean axonal length (expressed in μm) (Mean±SD). Statistical differences between vehicle-treated cells and cells treated with compounds are determined using a t-test.

Assay [2] deals with mouse primary cortical neurons challenged with Aβ1-42 oligomers (AβO). As to the kind of experiment: AβO-induced neurotoxicity, test item added concomitantly (T0) or 3 h (T3) or 6 h (T6) after AβO, MTT assay. The settings on record: for % of neuroprotection and anti-apoptotic effects / viability at 1 µM: 1000 nM. As to the method: Mouse primary cortical neurons were treated at 0 h (T0) with vehicle or 1 μM AβO, Different concentrations of Compound C or HNG (0.1 μM, used as positive control) were added concomitantly to AβO at 0 h (T0)), 3 h (T3) or 6 h (T6) after AβO. Then, cortical neurons were incubated for 24 h and cell viability was determined using the MTT assay (n=3 determinations per condition, 1 independent experiment). Data are represented as % of vehicle control (Mean±SD). […]
The aim of this study is to determine whether Compound C might present neuroprotective, anti-apoptotic and neuro-rescuing effects in in vitro AβO induced neuron death models. For that purpose, the neuro-protective effects of compound C at six concentrations were investigated using mouse primary cortical neurons challenged with Aβ1-42 oligomers (AβO) Compounds were added at different time points (concomitantly T0 with AβO and T3, or T6 after AβO) with the aim to identify rescuing effects or anti-apoptotic effects.
Cortical neurons from embryonic day 16-17 are prepared from C57Bl6/J mouse fetuses, as described in Example I-1.
Mouse cortical neurons were exposed for 24 h to 1.0 μM AβO. The AβO-induced neurotoxicity was evaluated using the MTT assay. […] (FIG. 4)
The percentage of neuroprotection and anti-apoptosis effects was defined as; (neuron viability of compound C group−neuron viability of toxin treated group)/(100−neuron viability of toxin treated group)×100%. The % of neuroprotection and anti-apoptotic effects of compound C at 1000 nM is 88.7%, 52.0%, 22.3%, at T0, T3, or T6, respectively. (FIG. 4) […]
In general terms: Tetrazolium assays rely on reduction of a dye to a coloured formazan, in cell work by metabolically active cells.

In assay [3] the test system is human iPSC-derived neurons challenged with Aβ1-42 oligomers (AβO). Kind of assay: AβO-induced neuronal death in human iPSC-derived neurons, NSE ELISA assay. To be noted: 10000 nM; for viability at 10 µM: Homo sapiens, Neuron, read-out: cell viability. The procedure: iPSCs were treated at 0 h (T0) with vehicle or 1 μM AβO. Different concentrations of Compound C or 0.1 μM HNG (used as positive control) were added concomitantly to AβO at 0 h (T0), 3 h (T3) or 6 h (T6) after AβO. Then, were incubated for 24 h and cell viability was determined using the NSE ELISA assay (n=6 determinations per condition, 1 independent experiment), Data are represented as % of vehicle control (Mean±SD). […]
To determine whether compound C might rescue neuronal death in human iPSC-derived neurons challenged with Aβ1-42 oligomers (AβO). In this cellular model, AβO induce a dramatic neuronal death that could be monitored by the level of neuronal specific enolase (NSE) using a specific ELISA assay. Compound C will be added at different time points (concomitantly and after AMBO) with the aim to identify rescuing effects.
Cells (HIP-Neuronal progenitors, GlobalStem, Cat #GSC-4312, Lot #20010260) are plated in 96-well plates at a density of 60.000 cells per well and culture. Before experiments, cells are matured for five weeks and kept at 37° C. in a humidified 5% CO2 atmosphere.
Cells are incubated with vehicle or 1 μM AβO in the absence or presence of different concentrations (i.e. 10, 100, 1000 and 10000 nM) of Compound C added concomitantly to AβO (T0), 3 h after AβO (T3), or 6 h after AβO (T6). Cells are incubated for 24 h in a final volume of 100 μL per well. For positive control, cells are treated similarly in the presence of 0.1 μM HNG (i.e. S14G variant of humanin peptide). In addition, neuronal loss is monitored using the detection of neuronal specific enolase (NSE) by ELISA assay according to supplier's recommendations (CloneCloud, Cat #SEA537Hu). A total of three data points per experimental condition will be generated here. […]

In assay [4] the test system is age-induced protein aggregates in Saccharomyces cerevisiae. Kind of assay: Age-induced protein aggregates (Hsp104-GFP foci) in old yeast cells. The settings on record: for proportion of cells with a Hsp104-GFP focus: vehicle only 58.7±10.6%. As to the method:
FIG. 9a: Representative images of a young cell, or old cells untreated or treated with Herb B (10 μg/ml) or Compound C (30 μM). Upper panels are maximum projection of z-series stacks of cells stained with fluorescent brightener 28 and imaged in the DAPI channel to reveal bud scars. Lower panel are single focal planes images of the same cells that express Hsp104-GFP and imaged in the GFP channel. Arrow point at an Hsp104-GFP focus.
FIG. 9c: Percentage of cells with an Hsp104-GFP focus. Cells were imaged with the same illumination conditions. All old cells imaged were included (between 75 and 94 cells). All focal planes were examined Mean±SD. P values are adjusted p values from an ANOVA comparing to vehicle only.
FIG. 9d: Average fluorescence intensity of Hsp104-GFP in the cell as a proxy for Hsp104-GFP concentration. Mean±SD. P values are adjusted p values obtained from ANOVA comparing to vehicle only
To test an effect on the formation of age-induced Hsp104-GFP foci, old cells were obtained and cultivated in the presence of Compound C (1 μM, 10 μM and 30 μM). Herb B (10 μg/ml), ethanol (0.3%, vehicle only) or in the absence of any treatment. Untreated young cells were obtained through a simple exponential growth.
Age was determined by staining bud scars with fluorescent brightener 28. […] (FIG. 9b)

For the compound `CCCCCCCCCCCCCCC(=O)OCC(COC(=O)CCCCCCCCCCCCCC)OC(=O)CCCCCCCCCCCCCC` [Compound C, tripentadecanoin], the results for the “neuronal axon outgrowth (mean axonal length)” value in assay [1] (1000 nM) and in assay [1] (10000 nM) were 199.93±101.17 μm and 304.27±149.60 μm, respectively. Besides, the “% of neuroprotection and anti-apoptotic effects” value is 88.7% in assay [2] (T0); 52.0% in assay [2] (T3); 22.3% in assay [2] (T6); 53.7% in assay [3] (T0); 90.8% in assay [3] (T3); 78.9% in assay [3] (T6). The compound further returned a viability at 0.32 µM in assay [2] (Mus musculus, Primary cortical neuron, 320 nM, added 3 h after AβO (T3)) of 65.3 ± 2.6%. In addition, the viability at 1 µM was determined as 76.6 ± 2.9% in assay [2] (Mus musculus, Primary cortical neuron, added 3 h after AβO (T3)); 62.4 ± 3.5% in assay [2] (Mus musculus, Primary cortical neuron, added 6 h after AβO (T6)); 94.5 ± 4.6% in assay [2] (Mus musculus, Primary cortical neuron, added concomitantly to AβO (T0)). The viability at 10 µM in assay [3] (T0) came out at 76.7 ± 2.7%; in assay [3] (T3), 94.2 ± 7.1%; in assay [3] (T6), 88.8 ± 1.3%. The “proportion of cells with a Hsp104-GFP focus” value in assay [4] (1 μM, not statistically significant) is listed as 46.2±4.8%; in assay [4] (10 μM) it was 37.5±6.0%; in assay [4] (30 μM), 34.3±13.7%. In addition, the “intensity of Hsp104-GFP (increase in old vs young cells)” value in assay [4] (compound C 1, 10, 30 μM, herb B 10 μg/ml) is “reduced the extent of this increase”.
